Test results taken from ChEMBL document CHEMBL3826930, “Antitumor activities of biscoumarin and dihydropyran derivatives” (Bioorg Med Chem Lett, 2016).
Values after ≈ are worked out from the molar mass of the structure shown. Each block holds one compound with its values, some of them ahead of it.

Tests used:
[1] = Antiproliferative activity against human PANC1 cells after 48 hrs by MTT assay; assay type: functional, cell-based; conditions: PANC-1, 48 h
4T1 [2] = assay: Antiproliferative activity against mouse 4T1 cells after 48 hrs by MTT assay; assay type: functional, cell-based; conditions: 4T1, 48 h
[3] = Antiproliferative activity against human HuTu 80 cells after 48 hrs by MTT assay; assay type: functional, cell-based; conditions: HuTu80, 48 h
HEK293 [4] = assay: Selectivity index, ratio of IC50 for HEK293 cells to IC50 for human PANC1 cells; assay type: functional
Mus musculus [5] = assay: Acute toxicity in Kunming mouse assessed as physical/abnormal changes in fur at 500 mg/kg, administered as single dose after 14 days; assay type: organism-based; conditions: in vivo, 336 h
Mus musculus [6] = assay: Acute toxicity in Kunming mouse assessed as physical/abnormal changes in mucus membrane at 500 mg/kg, administered as single dose after 14 days; assay type: organism-based; conditions: in vivo, 336 h
Mus musculus [7] = assay: Acute toxicity in Kunming mouse assessed as structural abnormality in liver at 500 mg/kg, administered as single dose after 14 days by hematoxylin and eosin staining based histological analysis; assay type: organism-based; conditions: in vivo, 336 h
Mus musculus [8] = assay: Acute toxicity in Kunming mouse assessed as physical/abnormal changes in eyes at 500 mg/kg, administered as single dose after 14 days; assay type: organism-based; conditions: in vivo, 336 h
Mus musculus [9] = assay: Acute toxicity in Kunming mouse assessed as behavior pattern abnormality at 500 mg/kg, administered as single dose after 14 days; assay type: organism-based; conditions: in vivo, 336 h
Mus musculus [10] = assay: Acute toxicity in Kunming mouse assessed as sleep pattern abnormality at 500 mg/kg, administered as single dose after 14 days; assay type: organism-based; conditions: in vivo, 336 h
PANC-1 = assay: Selectivity index, ratio of IC50 for HUVEC to IC50 for human PANC1 cells
HuTu80 = assay: Selectivity index, ratio of IC50 for HUVEC to IC50 for human HuTu 80 cells
Mus musculus [11] = assay: Acute toxicity in Kunming mouse assessed as physical/abnormal changes in skin at 500 mg/kg, administered as single dose after 14 days; assay type: organism-based; conditions: in vivo, 336 h
Mus musculus [12] = assay: Acute toxicity in Kunming mouse assessed as induction of salivation at 500 mg/kg, administered as single dose after 14 days; assay type: organism-based; conditions: in vivo, 336 h
4T1 [13] = assay: Selectivity index, ratio of IC50 for HUVEC to IC50 for mouse 4T1 cells
Mus musculus [14] = assay: Acute toxicity in Kunming mouse assessed as survival at 500 mg/kg, administered as single dose measured on day 14 post dose; assay type: organism-based; conditions: in vivo
HEK293 [15] = assay: (§1) Cytotoxicity against HEK293 cells assessed as reduction in cell survival after 48 hrs by MTT assay; assay type: cell-based, Homo sapiens; conditions: Homo sapiens, HEK293, 48 h
[16] = as §1; assay type: cell-based, Homo sapiens; conditions: human, HEK293 cells
Mus musculus [17] = assay: Acute toxicity in Kunming mouse assessed as tremor induction at 500 mg/kg, administered as single dose after 14 days; assay type: organism-based; conditions: in vivo, 336 h
Mus musculus [18] = assay: Acute toxicity in Kunming mouse assessed as structural abnormality in kidney at 500 mg/kg, administered as single dose after 14 days by hematoxylin and eosin staining based histological analysis; assay type: organism-based; conditions: in vivo, 336 h
HEK293 [19] = assay: Selectivity index, ratio of IC50 for HEK293 cells to IC50 for human HuTu 80 cells; assay type: functional
HEK293 [20] = assay: Selectivity index, ratio of IC50 for HEK293 cells to IC50 for mouse 4T1 cells; assay type: functional
[21] = (§2) Cytotoxicity against HUVEC assessed as reduction in cell survival after 48 hrs by MTT assay; assay type: cell-based, Homo sapiens; conditions: human, HUVEC cells
HUVEC = assay: as §2; assay type: cell-based, Homo sapiens; conditions: Homo sapiens, HUVEC, 48 h

- IC50 (4T1 [2]): 127 µg/mL (≈ 396 µM)
- IC90 (4T1 [2]): 307 µg/mL (≈ 955 µM)
Compound: N#CC1=C(N)OC2=C(C(=O)CC2)C1c1ccc(Cl)cc1Cl (centres undefined)
- IC50 [1]: 156 µg/mL (≈ 486 µM)
- IC90 [1]: 325 µg/mL (≈ 1010 µM)
- IC50 [3]: 150 µg/mL (≈ 466 µM)
- IC90 [3]: 302 µg/mL (≈ 941 µM)

- IC50 (4T1 [2]): > 300 µg/mL
- IC90 (4T1 [2]): > 500 µg/mL
Compound: CC1(C)CC(=O)C2=C(C1)OC(N)=C(C#N)C2c1ccc(S(C)(=O)=O)cc1 (centres undefined)
- IC50 [1]: > 300 µg/mL
- IC90 [1]: > 500 µg/mL
- IC50 [3]: > 300 µg/mL
- IC90 [3]: > 500 µg/mL

- IC50 (4T1 [2]): 117 µg/mL (≈ 378 µM)
- IC90 (4T1 [2]): 288 µg/mL (≈ 936 µM)
Compound: CC(C)(C)c1ccc(C2C(C#N)=C(N)OC3=C2C(=O)CC3)cc1 (centres undefined)
- IC50 [1]: 219 µg/mL (≈ 711 µM)
- IC90 [1]: 435 µg/mL (≈ 1410 µM)
- IC50 [3]: 103 µg/mL (≈ 334 µM)
- IC90 [3]: 233 µg/mL (≈ 757 µM)

- IC50 (4T1 [2]): 125 µg/mL (≈ 452 µM)
- IC90 (4T1 [2]): 299 µg/mL (≈ 1080 µM)
Compound: N#CC1=C(N)OC2=C(C(=O)CC2)C1c1cccc(C#N)c1 (centres undefined)
- IC50 [1]: 143 µg/mL (≈ 515 µM)
- IC90 [1]: 317 µg/mL (≈ 1140 µM)
- IC50 [3]: 191 µg/mL (≈ 690 µM)
- IC90 [3]: 381 µg/mL (≈ 1370 µM)

- IC50 (4T1 [2]): 241 µg/mL (≈ 692 µM)
- IC90 (4T1 [2]): > 500 µg/mL
Compound: CC1(C)CC(=O)C2=C(C1)OC(N)=C(C#N)C2c1cc(F)c(F)c(F)c1 (centres undefined)
- IC50 [1]: 283 µg/mL (≈ 812 µM)
- IC90 [1]: > 500 µg/mL
- IC50 [3]: 297 µg/mL (≈ 854 µM)
- IC90 [3]: > 500 µg/mL

- IC50 (4T1 [2]): 153 µg/mL (≈ 448 µM)
- IC90 (4T1 [2]): 365 µg/mL (≈ 1070 µM)
Compound: COc1cc(C2C(C#N)=C(N)OC3=C2C(=O)CC3)cc(OC)c1OC (centres undefined)
- IC50 [1]: 200 µg/mL (≈ 583 µM)
- IC90 [1]: 391 µg/mL (≈ 1140 µM)
- IC50 [3]: 185 µg/mL (≈ 541 µM)
- IC90 [3]: 360 µg/mL (≈ 1050 µM)

Compound: N#Cc1ccc(C(c2c(O)c3ccccc3oc2=O)c2c(O)c3ccccc3oc2=O)cc1
- Ratio IC50 (HEK293 [4]): 1.9
- Activity (Mus musculus [5]): Non-toxic
- Activity (Mus musculus [6]): Non-toxic
- IC50 [1]: 93.5 µg/mL (≈ 214 µM)
- IC90 [1]: 202 µg/mL (≈ 461 µM)
- Activity (Mus musculus [7]): Non-toxic
- Activity (Mus musculus [8]): Non-toxic
- Activity (Mus musculus [9]): Non-toxic
- Activity (Mus musculus [10]): Non-toxic
- Ratio IC50 (PANC-1): 1.73
- IC50 (4T1 [2]): 51.5 µg/mL (≈ 118 µM)
- IC90 (4T1 [2]): 102 µg/mL (≈ 233 µM)
- IC50 [3]: 47.6 µg/mL (≈ 109 µM)
- IC90 [3]: 98.3 µg/mL (≈ 225 µM)
- Ratio IC50 (HuTu80): 3.4
- Activity (Mus musculus [11]): Non-toxic
- Activity (Mus musculus [12]): Non-toxic
- Ratio IC50 (4T1 [13]): 3.1
- Activity (Mus musculus [14]): Non-toxic
- IC50 (HEK293 [15]): 180 µg/mL (≈ 411 µM)
- IC90 at 48 h [16]: 343 µg/mL (≈ 783 µM)
- Activity (Mus musculus [17]): Non-toxic
- Activity (Mus musculus [18]): Non-toxic
- Ratio IC50 (HEK293 [19]): 3.8
- Ratio IC50 (HEK293 [20]): 3.5
- IC90 at 48 h [21]: 322 µg/mL (≈ 735 µM)
- IC50 (HUVEC): 162 µg/mL (≈ 371 µM)

- IC50 (4T1 [2]): 248 µg/mL (≈ 764 µM)
- IC90 (4T1 [2]): > 500 µg/mL
Compound: COc1cccc(C2C(C#N)=C(N)OC3=C2C(=O)CC(C)(C)C3)c1 (centres undefined)
- IC50 [1]: > 300 µg/mL
- IC90 [1]: > 500 µg/mL
- IC50 [3]: 283 µg/mL (≈ 873 µM)
- IC90 [3]: > 500 µg/mL
